Data set [1] can be described thus: Toxicity in ip dosed C57BL/6 mouse administered for 5 days/week for two cycles. The class given is organism-based. The settings on record: in vivo.
A short description of data set [2]: Drug level in C57BL/6 mouse plasma at 30 mg/kg, ip measured after 24 hrs. The data set is classed as ADME, organism-based. The conditions noted are these: in vivo, BLD = below limit of detection.
The nature of data set [3]: Selectivity ratio of IC50 for N-terminal His-tagged human HDAC11 expressed in baculovirus expression system to IC50 for human N-terminal GST-tagged HDAC6 expressed in baculovirus infected sf9 insect cells.
A short description of data set [4]: Selectivity ratio of IC50 for N-terminal Flag-tagged human HDAC10 (2 to 631 residues) expressed in baculovirus infected sf9 insect cells to IC50 for human N-terminal GST-tagged HDAC6 expressed in baculovirus infected sf9 insect cells.
Data set [5] has as its target T1, Protein deacetylase HDAC6 (Mus musculus) (UniProt Q9Z2V5).
T1 sequence (whole entry): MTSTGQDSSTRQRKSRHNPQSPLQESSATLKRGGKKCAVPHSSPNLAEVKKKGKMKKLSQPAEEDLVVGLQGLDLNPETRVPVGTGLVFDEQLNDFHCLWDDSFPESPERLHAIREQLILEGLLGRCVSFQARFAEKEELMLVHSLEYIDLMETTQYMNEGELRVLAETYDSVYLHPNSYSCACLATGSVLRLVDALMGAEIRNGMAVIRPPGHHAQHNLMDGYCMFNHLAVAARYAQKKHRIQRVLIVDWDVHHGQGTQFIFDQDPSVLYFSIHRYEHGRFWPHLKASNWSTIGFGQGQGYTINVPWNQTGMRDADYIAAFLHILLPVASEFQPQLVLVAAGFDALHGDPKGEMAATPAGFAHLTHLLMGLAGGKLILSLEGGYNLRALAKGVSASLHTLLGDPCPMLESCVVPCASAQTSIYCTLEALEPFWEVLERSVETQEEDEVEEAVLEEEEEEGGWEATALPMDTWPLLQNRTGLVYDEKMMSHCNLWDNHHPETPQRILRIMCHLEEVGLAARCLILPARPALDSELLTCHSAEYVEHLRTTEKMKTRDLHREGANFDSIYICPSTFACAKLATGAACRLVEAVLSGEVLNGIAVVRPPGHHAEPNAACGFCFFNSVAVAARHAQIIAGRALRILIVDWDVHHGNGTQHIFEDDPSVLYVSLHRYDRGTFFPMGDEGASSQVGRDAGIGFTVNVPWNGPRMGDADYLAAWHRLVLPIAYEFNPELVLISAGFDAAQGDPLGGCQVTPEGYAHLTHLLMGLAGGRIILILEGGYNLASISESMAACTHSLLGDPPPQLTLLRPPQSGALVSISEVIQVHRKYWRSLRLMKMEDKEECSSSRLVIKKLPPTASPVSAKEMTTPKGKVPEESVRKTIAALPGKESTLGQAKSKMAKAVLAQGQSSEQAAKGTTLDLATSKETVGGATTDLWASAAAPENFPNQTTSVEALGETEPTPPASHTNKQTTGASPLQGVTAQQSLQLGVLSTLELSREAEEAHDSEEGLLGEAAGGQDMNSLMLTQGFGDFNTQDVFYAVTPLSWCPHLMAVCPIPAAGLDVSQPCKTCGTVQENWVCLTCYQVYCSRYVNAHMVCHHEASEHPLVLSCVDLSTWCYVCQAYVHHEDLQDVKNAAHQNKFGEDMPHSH
Put plainly: Inhibition of HDAC6 in C57BL/6 mouse regulatory T cells assessed as increase in Treg-mediated suppression of anti-CD3 induced CD4+ cell division at 1 uM after 72 hrs in presence mitomycin-treated APC by CFSE dye based flow cytometric assay relative to control. A general note: In flow cytometry, cells or beads pass a laser one at a time.

Data set [6] is described as follows: Selectivity ratio of IC50 for C-terminal His-tagged human HDAC9 (604 to 1066 residues) expressed in baculovirus infected sf9 insect cells to IC50 for human N-terminal GST-tagged HDAC6 expressed in baculovirus infected sf9 insect cells.
Data set [7] can be described thus: Stability in human liver S9 fraction assessed as parent compound remaining at 5 uM after 90 mins in presence of NADPH by LC-MS/MS analysis. The data set is classed as ADME, subcellular. The settings on record: read-out: Stability.
The nature of data set [8]: Toxicity in C57BL/6 mouse assessed as effect on body temperature up to 50 mg/kg, ip administered for 5 days/week for two cycles and measured daily starting from day 1. The class given is organism-based. The conditions noted are these: in vivo, 120 h.
The target in data set [9] is T2, Protein deacetylase HDAC6 (Homo sapiens) (UniProt Q9UBN7).
T2 sequence (whole entry): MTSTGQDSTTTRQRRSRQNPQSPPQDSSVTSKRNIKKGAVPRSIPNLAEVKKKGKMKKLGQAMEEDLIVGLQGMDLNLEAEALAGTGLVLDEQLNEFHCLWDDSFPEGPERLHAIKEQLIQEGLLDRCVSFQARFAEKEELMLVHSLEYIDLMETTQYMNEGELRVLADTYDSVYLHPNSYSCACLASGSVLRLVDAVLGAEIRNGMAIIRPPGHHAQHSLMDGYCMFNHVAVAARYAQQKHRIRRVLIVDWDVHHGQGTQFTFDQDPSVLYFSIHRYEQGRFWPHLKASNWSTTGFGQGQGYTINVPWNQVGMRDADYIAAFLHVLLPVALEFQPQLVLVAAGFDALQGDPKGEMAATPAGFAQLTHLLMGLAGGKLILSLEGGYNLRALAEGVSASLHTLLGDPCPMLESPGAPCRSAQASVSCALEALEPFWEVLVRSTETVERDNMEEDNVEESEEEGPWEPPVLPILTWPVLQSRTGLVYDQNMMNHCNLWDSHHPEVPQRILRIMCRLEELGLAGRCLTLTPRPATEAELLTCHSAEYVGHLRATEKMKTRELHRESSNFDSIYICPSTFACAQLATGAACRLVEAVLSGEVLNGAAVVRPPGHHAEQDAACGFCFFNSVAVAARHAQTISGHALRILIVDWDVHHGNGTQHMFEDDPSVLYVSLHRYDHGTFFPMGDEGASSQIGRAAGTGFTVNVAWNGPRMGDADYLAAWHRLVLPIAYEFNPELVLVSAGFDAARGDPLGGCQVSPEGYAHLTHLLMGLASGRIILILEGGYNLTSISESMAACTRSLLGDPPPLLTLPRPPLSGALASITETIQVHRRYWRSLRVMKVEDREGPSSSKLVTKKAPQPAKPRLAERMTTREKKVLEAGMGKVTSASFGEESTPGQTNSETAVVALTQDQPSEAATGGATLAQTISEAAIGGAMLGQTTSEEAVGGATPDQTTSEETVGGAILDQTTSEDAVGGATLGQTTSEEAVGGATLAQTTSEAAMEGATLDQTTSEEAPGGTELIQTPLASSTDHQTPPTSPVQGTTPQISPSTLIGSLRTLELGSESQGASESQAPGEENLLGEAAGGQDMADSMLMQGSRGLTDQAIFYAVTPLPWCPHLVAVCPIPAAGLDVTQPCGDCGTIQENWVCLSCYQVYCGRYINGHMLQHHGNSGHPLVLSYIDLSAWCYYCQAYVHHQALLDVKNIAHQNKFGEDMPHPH
Description: Inhibition of HDAC6 in HEK293 cells harboring human Foxp3 assessed as induction of Foxp3 hyperacetylation in whole cell lysates at 500 nM incubated for 6 hrs by SDS-PAGE based Western blot analysis. The class given is subcellular. The settings on record: Lysate.

The source made the active and inactive calls. The rule behind the calls is not given here. Bounds are passed on as bounds.

In data set [1], `Cn1c(Sc2ccc(C(=O)NO)cc2)nnc1-c1cccs1` gave an MTD at 120 h below 30 mg/kg. In data set [2], the Drug uptake result was “Bld”. In addition, the results for the “Ratio IC50” value in data set [3], in [4] and in data set [6] were 119, 343 and 132, respectively. The fold change (FC) in data set [5] came out at 3.4. The remaining at […], 5 µM in data set [7] is 95%. For the same molecule, in data set [8], the Activity entry is reported as “Non-Toxic”. The inhibition entry in data set [9] is “Active”.

Values taken from ChEMBL document CHEMBL4414648, “Novel Benzohydroxamate-Based Potent and Selective Histone Deacetylase 6 (HDAC6) Inhibitors Bearing a Pentaheterocyclic Scaffold: Design, Synthesis, and Biological Evaluation” (J Med Chem, 2019).
